Laboratory results taken from publication PMC8752738, “A propolis-derived small molecule ameliorates metabolic syndrome in obese mice by targeting the CREB/CRTC2 transcriptional complex” (Nature Communications, 2022).
Where “and” joins values, the source holds several entries; their conditions need not be identical. Equal entries are not always repeated.

Test system: tissue mRNA levels
Assay: Quantitative PCR of tissue gene expression in treated mice;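 for mRNA levels Retn: daily intraperitoneal dosing for 5 weeks versus vehicle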;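 for mRNA levels Srebf-1c: daily intraperitoneal dosing for 5 weeks versus vehicle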;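 for mRNA levels Srebf-2: daily intraperitoneal dosing for 5 weeks versus vehicle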;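 for mRNA levels Tnfaip2: daily intraperitoneal dosing for 5 weeks versus vehicle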
Assay type: in vivo, mouse
Design: key to mRNA levels Scap / mRNA levels Insig1 / mRNA levels Ldlr / mRNA levels Mttp / mRNA levels Atgl / mRNA levels Tnfaip2 / mRNA levels Rxra / mRNA levels Srebf1 / mRNA levels Ucp2: mRNA level normalized to ribosomal L32 mRNA (internal control)
Protocol: Total RNA from cells and tissues was extracted by Trizol (Invitrogen) and reverse-transcribed into cDNA using the prime script RT reagent kit with gDNA eraser (Takara). The mRNA levels were determined using the SYBR-green PCR kit (Takara) with ABIPRISM 7900HT Sequence detector (ABI) according to the manufacturer’s protocol. The quantitative qPCR primers used in this work are listed in Supplementary Table 1. Ribosomal L32 mRNA levels were used as an internal control.

[1] = Figure 6d, white fat (WF) tissue of DIO mice, individual animals
[2] = db/db mice, liver, individual mouse, relative to VEH
[3] = liver of DIO mice, individual animals, n=5, relative to VEH

## CC(C)=CCc1cc(C=CC(=O)O)cc(CC=C(C)C)c1O [APC, 3,5-diprenyl-4-hydroxycinnamic acid]
[1]
  mRNA levels Retn: 0.123 and 0.143 and 0.2381 and 0.235 and 0.5597 and 0.5846
  mRNA levels Scd1: 0.2084 and 0.3568 and 0.6736 and 0.7934 and 0.506 and 0.7156
  mRNA levels Srebf-1c: 0.5354 and 0.1144 and 0.4679 and 0.2361 and 0.4842 and 0.3947
  mRNA levels Srebf-2: 0.5798 and 0.5629 and 0.8096 and 0.529 and 0.7852 and 0.6266
  mRNA levels Tnfaip2: 1.35 and 1.386 and 0.7621 and 0.8823 and 0.8616 and 0.7122
WT mice, Met 200mg/kg or APC-20
  Mean Diff. (Veh. vs. treated; head of the quantity not shown, section just before Figure 7h): 0.5814
brain, Creb mRNA, group mean
  CREB targets in tissues: Brain-Creb, Mean of APC: 1.036
brain, Creb mRNA, individual animals
  CREB targets in tissues: Brain-Creb: 1.197 and 1.012 and 0.7996 and 1.136
brain, Nr4a1 mRNA, group mean
  CREB targets in tissues: Brain-Nr4a1, Mean of APC: 1.211
brain, Nr4a1 mRNA, individual animals
  CREB targets in tissues: Brain-Nr4a1: 1.274 and 1.137 and 0.9545 and 1.476
db/db mice, liver, group mean
  G6pc mRNA levels in the liver of db/db, Mean of APC: 0.7471
  Pck1 mRNA levels in the liver of db/db, Mean of APC: 0.6226
  Pgc1a mRNA levels in the liver of db/db, Mean of APC: 0.7977
  Pgc1beta mRNA levels in the liver of db/db, Mean of APC: 0.5441
[2]
  G6pc mRNA levels in the liver of db/db: 0.8066 and 0.775 and 0.6553 and 0.7287 and 0.77
  Pck1 mRNA levels in the liver of db/db: 0.6945 and 0.6263 and 0.76 and 0.3641 and 0.668
  Pgc1a mRNA levels in the liver of db/db: 0.6615 and 0.9739 and 0.731 and 0.852 and 0.77
  Pgc1beta mRNA levels in the liver of db/db: 0.4871 and 0.4573 and 0.6546 and 0.4823 and 0.6391
intestine, Creb mRNA, group mean
  CREB targets in tissues: Intestine-Creb, Mean of APC: 0.8467
intestine, Creb mRNA, individual animals
  CREB targets in tissues: Intestine-Creb: 1.179 and 0.6319 and 0.7341 and 0.8415
intestine, Gcg mRNA, group mean
  CREB targets in tissues: Intestine-Gcg, Mean of APC: 1.011
intestine, Gcg mRNA, individual animals
  CREB targets in tissues: Intestine-Gcg: 1.309 and 1.259 and 0.7551 and 0.7184
intestine, Nr4a1 mRNA, group mean
  CREB targets in tissues: Intestine-Nr4a1, Mean of APC: 0.8751
intestine, Nr4a1 mRNA, individual animals
  CREB targets in tissues: Intestine-Nr4a1: 0.8692 and 0.9136 and 0.8672 and 0.8504
kidney, Creb mRNA, group mean
  CREB targets in tissues: Kidney-Creb, Mean of APC: 1.013
kidney, Creb mRNA, individual animals
  CREB targets in tissues: Kidney-Creb: 1.268 and 1.031 and 0.912 and 0.8402
kidney, Nr4a1 mRNA, group mean
  CREB targets in tissues: Kidney-Nr4a1, Mean of APC: 1.291
kidney, Nr4a1 mRNA, individual animals
  CREB targets in tissues: Kidney-Nr4a1: 1.347 and 1.276 and 1.454 and 1.087
[3]
  mRNA levels of nuclear receptor in the liver of DIO mice: Lxrα: 0.586 and 0.8678 and 0.6768 and 0.6509 and 0.6469
  mRNA levels of nuclear receptor in the liver of DIO mice: Pparα: 0.9724 and 0.9732 and 1.109 and 1.163 and 1.051
  mRNA levels of nuclear receptor in the liver of DIO mice: Pparγ: 1.158 and 1.005 and 1.0158 and 1.1983 and 1.083
  mRNA levels of nuclear receptor in the liver of DIO mice: Rxrα: 0.9006 and 1.063 and 0.8578 and 0.9925 and 1.111
Liver of DIO mice, mean of N=5
  mRNA levels of nuclear receptor in the liver of DIO mice: Lxrα, group mean (Mean 1): 0.6857
  mRNA levels of nuclear receptor in the liver of DIO mice: Pparα, group mean (Mean 1): 1.054
  mRNA levels of nuclear receptor in the liver of DIO mice: Pparγ, group mean (Mean 1): 1.092
  mRNA levels of nuclear receptor in the liver of DIO mice: Rxrα, group mean (Mean 1): 0.9849
muscle, Creb mRNA, group mean
  CREB targets in tissues: Mus-Creb, Mean of APC: 1.048
muscle, Creb mRNA, individual animals
  CREB targets in tissues: Mus-Creb: 1.0591 (2×) and 0.9897 and 1.082
muscle, Nr4a1 mRNA, group mean
  CREB targets in tissues: Mus-Nr4a1, Mean of APC: 1.244
muscle, Nr4a1 mRNA, individual animals
  CREB targets in tissues: Mus-Nr4a1: 1.457 (2×) and 0.6913 and 1.369
muscle, Pdk1 mRNA, group mean
  CREB targets in tissues: Mus-Pdk1, Mean of APC: 0.9489
muscle, Pdk1 mRNA, individual animals
  CREB targets in tissues: Mus-Pdk1: 0.9576 (2×) and 0.8606 and 1.02
Oral 20 mg/kg daily, 3 weeks
  liver mRNA levels of Srebp-1c and 2 in CRTC2 knockout mice: did not further decrease
pancreas, C2cd4a mRNA, group mean
  CREB targets in tissues: Pancreac-C2cd4a, Mean of APC: 0.9353
pancreas, C2cd4a mRNA, individual animals
  CREB targets in tissues: Pancreac-C2cd4a: 1.193 and 0.8753 and 0.8055 and 0.8678
pancreas, Creb mRNA, group mean
  CREB targets in tissues: Pancreac-Creb, Mean of APC: 1.238
pancreas, Creb mRNA, individual animals
  CREB targets in tissues: Pancreac-Creb: 1.233 and 1.182 and 1.267 and 1.269
pancreas, Nr4a1 mRNA, group mean
  CREB targets in tissues: Pancreac-Nr4a1, Mean of APC: 1.238
pancreas, Nr4a1 mRNA, individual animals
  CREB targets in tissues: Pancreac-Nr4a1: 0.9381 and 1.521 and 1.263 and 1.23
spleen, Creb mRNA, group mean
  CREB targets in tissues: Spleen-Creb, Mean of APC: 1.07
spleen, Creb mRNA, individual animals
  CREB targets in tissues: Spleen-Creb: 1.294 and 1.069 and 0.8334 and 1.085
spleen, Nr4a1 mRNA, group mean
  CREB targets in tissues: Spleen-Nr4a1, Mean of APC: 1.115
spleen, Nr4a1 mRNA, individual animals
  CREB targets in tissues: Spleen-Nr4a1: 1.516 and 1.042 and 0.6673 and 1.233
